Results reported in ChEMBL document CHEMBL1125092, “Nonneurotoxic tetralin and indan analogues of 3,4-(methylenedioxy)amphetamine (MDA)” (J Med Chem, 1990).

Assays:
Rattus norvegicus [1] = assay: Hallucinogenic property was determined in groups of MDMA trained rats and percentage of animals disrupted was reported at a dose 1.1 (umol/kg),(number of animals = 8; format: functional
Rattus norvegicus [2] = assay: Hallucinogenic property was determined in groups of MDMA trained rats and percentage of animals disrupted was reported at a dose 6.59 (umol/kg),(number of animals = 9; format: functional
Rattus norvegicus [3] = assay: Hallucinogenic property was determined in groups of MDMA trained rats and percentage of animals disrupted was reported at a dose 2.74 umol/kg),(number of animals = 12; format: functional
Rattus norvegicus [4] = assay: Tested for disruption in more than 50% rats trained to discriminate LSD from saline at a dose 8.78(uM/kg) (no. of animals =11); format: functional
Rattus norvegicus [5] = assay: Hallucinogenic property was determined in groups of LSD trained rats and percentage of animals disrupted was reported at a dose 2.74 (umol/kg),(number of animals = 8); format: functional
Rattus norvegicus [6] = assay: Tested for stimulus generation in rats trained to discriminate +/-MDMA from saline at 8.78 (umol/kg),(number of animals = 12); format: functional
Rattus norvegicus [7] = assay: Hallucinogenic property was determined in groups of MDMA trained rats and percentage of animals disrupted was reported at a dose 3.29 (umol/kg),(number of animals =10; format: functional
Rattus norvegicus [8] = assay: Tested for stimulus generation in rats trained to discriminate +/-MDMA from saline at 2.74 (umol/kg),(number of animals = 12); format: functional
Rattus norvegicus [9] = assay: Hallucinogenic property was determined in groups of MDMA trained rats and percentage of animals selecting drug lever was reported at 13.18 (umol/kg),(number of animals = 5; format: functional
Rattus norvegicus [10] = assay: Tested for stimulus generation in rats trained to discriminate LSD from saline at a dose 2.74 (umol/kg),(number of animals = 8); format: functional
Rattus norvegicus [11] = assay: Hallucinogenic property was determined in groups of LSD trained rats and percentage of animals disrupted was reported at a dose 4.39 (umol/kg),(number of animals = 12); format: functional
Rattus norvegicus [12] = assay: Hallucinogenic property was determined in groups of LSD trained rats and percentage of animals disrupted was reported at 1.10 (umol/kg),(number of animals = 9); format: functional
Rattus norvegicus [13] = assay: Tested for stimulus generation in rats trained to discriminate LSD from saline at a dose 4.39 (umol/kg),(number of animals = 12); format: functional
Rattus norvegicus [14] = assay: Hallucinogenic property was determined in groups of MDMA trained rats and percentage of animals disrupted was reported at a dose 2.2 (umol/kg),(number of animals = 11; format: functional
Rattus norvegicus [15] = assay: Tested for stimulus generation in rats trained to discriminate +/-MDMA from saline at 7.69 (umol/kg),(number of animals = 12); format: functional
Rattus norvegicus [16] = assay: Tested for stimulus generation in rats trained to discriminate +/-MDMA from saline at 1.10 (umol/kg),(number of animals = 8); format: functional
Rattus norvegicus [17] = assay: Hallucinogenic property was determined in groups of LSD trained rats and percentage of animals disrupted was reported at a dose 0.55 (umol/kg),(number of animals = 9); format: functional
Rattus norvegicus [18] = assay: Hallucinogenic property was determined in groups of LSD trained rats and percentage of animals disrupted was reported at a dose 8.78 (umol/kg),(number of animals = 11); format: functional
Rattus norvegicus [19] = assay: Hallucinogenic property was determined in groups of LSD trained rats and percentage of animals disrupted was reported at a dose 2.2 (umol/kg),(number of animals = 8); format: functional
Rattus norvegicus [20] = assay: Tested for stimulus generation in rats trained to discriminate +/-MDMA from saline at 2.2 (umol/kg),(number of animals = 11); format: functional
Rattus norvegicus [21] = assay: Hallucinogenic property was determined in groups of MDMA trained rats and percentage of animals disrupted was reported at a dose 7.69 (umol/kg),(number of animals = 12); format: functional
Rattus norvegicus [22] = assay: Tested for stimulus generation in rats trained to discriminate LSD from saline at a dose 6.59 (umol/kg),(number of animals = 15); format: functional
Rattus norvegicus [23] = assay: Hallucinogenic property was determined in groups of MDMA trained rats and percentage of animals disrupted was reported at 8.78 (umol/kg),(number of animals = 12; format: functional
Rattus norvegicus [24] = assay: Hallucinogenic property was determined in groups of LSD trained rats and percentage of animals disrupted was reported at a dose 6.59 (umol/kg),(number of animals = 15); format: functional
Rattus norvegicus [25] = assay: Tested for stimulus generation in rats trained to discriminate LSD from saline at a dose 1.10 (umol/kg),(number of animals = 9); format: functional
Rattus norvegicus [26] = assay: Tested for stimulus generation in rats trained to discriminate +/-MDMA from saline at 6.59 (umol/kg),(number of animals = 9); format: functional
Rattus norvegicus [27] = assay: Hallucinogenic property was determined in groups of MDMA trained rats and percentage of animals disrupted was reported at a dose 4.39 (umol/kg),(number of animals = 9); format: functional
Rattus norvegicus [28] = assay: Tested for stimulus generation in rats trained to discriminate LSD from saline at 2.2 (umol/kg),(number of animals = 8); format: functional
Rattus norvegicus [29] = assay: Tested for stimulus generation in rats trained to discriminate LSD from saline at a dose 0.55 (umol/kg),(number of animals = 9); format: functional
Rattus norvegicus [30] = assay: Tested for stimulus generation in rats trained to discriminate +/-MDMA from saline at 3.29 (umol/kg),(number of animals = 10); format: functional
Rattus norvegicus [31] = assay: Tested for stimulus generation in rats trained to discriminate +/-MDMA from saline at 4.39 (umol/kg),(number of animals = 9); format: functional
[32] = Binding affinity was determined towards serotonin uptake site in presence of [3H]paroxetine radioligand in rat brain cortical homogenate; format: tissue-based
Rattus norvegicus [33] = assay: Percentage of animals disrupted was determined in groups of MDMA trained rats at a dose of 3.81 (umol/kg),(no of animals = 8); format: functional
Rattus norvegicus [34] = assay: Percentage of animals disrupted was determined in groups of MDMA trained rats at a dose of 7.62 (umol/kg),(no of animals = 8); format: functional
Rattus norvegicus [35] = assay: Monoamine levels in rat hippocampus were evaluated after subcutaneous administration of 40 mg/kg for 5-HIAA; format: functional
Rattus norvegicus [36] = assay: Percentage of animals disrupted was determined in groups of MDMA trained rats at a dose of 1.90 (umol/kg),(no of animals = 8); format: functional
Rattus norvegicus [37] = assay: Monoamine levels in rat brain were evaluated after subcutaneous administration of 40 mg/kg for NE; format: functional
Rattus norvegicus [38] = species on record: Rattus norvegicus; assay: Compounds were evaluated for binding of [3H]paroxetine to rat hippocampal homogenate and number of binding sites (Bmax) for serotonin; format: tissue-based; details: Hippocampus
Rattus norvegicus [39] = assay: Tested for stimulus generation in rats trained to discriminate MDMA from saline at a dose 7.62 (umol/kg),(number of animals = 8); format: functional
Rattus norvegicus [40] = assay: Monoamine levels in rat brain were evaluated after subcutaneous administration of 40 mg/kg for HVA; format: functional
Rattus norvegicus [41] = assay: Tested for stimulus generation in rats trained to discriminate MDMA from saline at a dose 1.90 (umol/kg) (number of animals = 8); format: functional
Rattus norvegicus [42] = assay: Monoamine levels in rat hippocampus were evaluated after subcutaneous administration of 40 mg/kg for 5-HT; format: functional
Rattus norvegicus [43] = assay: Percentage of animals disrupted was determined in groups of MDMA trained rats at a dose of 0.95 (umol/kg),(no of animals = 8); format: functional
Rattus norvegicus [44] = species on record: Rattus norvegicus; assay: Compounds were evaluated for binding of [3H]paroxetine to rat brain cortical homogenate and number of binding sites (Bmax) for serotonin; format: tissue-based
Rattus norvegicus [45] = assay: Monoamine levels in at hippocampus were evaluated after subcutaneous administration of 40 mg/kg for NE; format: functional
Rattus norvegicus [46] = assay: Monoamine levels in rat brain were evaluated after subcutaneous administration of 40 mg/kg for 5-HIAA; format: functional
[47] = Binding affinity was determined towards serotonin uptake site in presence of [3H]paroxetine radioligand in rat hippocampal homogenate; format: tissue-based, Hippocampus
Rattus norvegicus [48] = assay: Monoamine levels in rat brain were evaluated after subcutaneous administration of 40 mg/kg for 5-HT; format: functional
Rattus norvegicus [49] = assay: Tested for stimulus generation in rats trained to discriminate MDMA from saline at a dose 3.81 (umol/kg),(number of animals = 8); format: functional
Rattus norvegicus [50] = assay: Monoamine levels in rat brain were evaluated after subcutaneous administration of 40 mg/kg for DOPAC; format: functional
Rattus norvegicus [51] = assay: Monoamine levels in rat brain were evaluated after subcutaneous administration of 40 mg/kg for DA; format: functional

NC1CCc2c(ccc3c2OCO3)C1 (stereo unspecified)
D (Rattus norvegicus [1]): 38%
D (Rattus norvegicus [2]): 11%
D (Rattus norvegicus [3]): 33%
SDL (Rattus norvegicus [4]): 71%
D (Rattus norvegicus [5]): 0%
SDL (Rattus norvegicus [6]): 71%
D (Rattus norvegicus [7]): 20%
SDL (Rattus norvegicus [8]): 63%
D (Rattus norvegicus [9]): 100%
SDL (Rattus norvegicus [10]): 25%
D (Rattus norvegicus [11]): 33%
D (Rattus norvegicus [12]): 11%
SDL (Rattus norvegicus [13]): 25%
D (Rattus norvegicus [14]): 27%
SDL (Rattus norvegicus [15]): 75%
SDL (Rattus norvegicus [16]): 0%
D (Rattus norvegicus [17]): 11%
D (Rattus norvegicus [18]): 55%
D (Rattus norvegicus [19]): 0%
SDL (Rattus norvegicus [20]): 63%
D (Rattus norvegicus [21]): 33%
SDL (Rattus norvegicus [22]): 38%
D (Rattus norvegicus [23]): 42%
D (Rattus norvegicus [24]): 47%
SDL (Rattus norvegicus [25]): 13%
SDL (Rattus norvegicus [26]): 75%
D (Rattus norvegicus [27]): 11%
SDL (Rattus norvegicus [28]): 25%
SDL (Rattus norvegicus [29]): 0%
SDL (Rattus norvegicus [30]): 63%
SDL (Rattus norvegicus [31]): 50%

CNC(C)Cc1ccc2c(c1)OCO2 (stereo unspecified) [MIDOMAFETAMINE]
Kd [32]: 0.123 nM
D (Rattus norvegicus [33]): 0%
D (Rattus norvegicus [34]): 0%
Monoamine level (Rattus norvegicus [35]): <256 pg/mg
D (Rattus norvegicus [36]): 0%
Monoamine level (Rattus norvegicus [37]): 375 pg/mg
Bmax (Rattus norvegicus [38]): < 348 fM/g
SDL (Rattus norvegicus [39]): 100%
Monoamine level (Rattus norvegicus [40]): 318 pg/mg
SDL (Rattus norvegicus [41]): 25%
Monoamine level (Rattus norvegicus [42]): <105 pg/mg
D (Rattus norvegicus [43]): 0%
Bmax (Rattus norvegicus [44]): < 643 fM/g
Monoamine level (Rattus norvegicus [45]): 429 pg/mg
Monoamine level (Rattus norvegicus [46]): <230 pg/mg
Kd [47]: 0.195 nM
Monoamine level (Rattus norvegicus [48]): <161 pg/mg
SDL (Rattus norvegicus [49]): 75%
Monoamine level (Rattus norvegicus [50]): 212 pg/mg
Monoamine level (Rattus norvegicus [51]): 151 pg/mg
